pIC50: −log10 of the molar value.
Target: T1, full-length human PKCι (Homo sapiens, UniProt P41743)
T1 construct: Recombinant, full-length human PKCι expressed in Sf21 insect cells is also commercially available; purchased; host or cells: Sf21 insect cells
T1 sequence (P41743 1-596): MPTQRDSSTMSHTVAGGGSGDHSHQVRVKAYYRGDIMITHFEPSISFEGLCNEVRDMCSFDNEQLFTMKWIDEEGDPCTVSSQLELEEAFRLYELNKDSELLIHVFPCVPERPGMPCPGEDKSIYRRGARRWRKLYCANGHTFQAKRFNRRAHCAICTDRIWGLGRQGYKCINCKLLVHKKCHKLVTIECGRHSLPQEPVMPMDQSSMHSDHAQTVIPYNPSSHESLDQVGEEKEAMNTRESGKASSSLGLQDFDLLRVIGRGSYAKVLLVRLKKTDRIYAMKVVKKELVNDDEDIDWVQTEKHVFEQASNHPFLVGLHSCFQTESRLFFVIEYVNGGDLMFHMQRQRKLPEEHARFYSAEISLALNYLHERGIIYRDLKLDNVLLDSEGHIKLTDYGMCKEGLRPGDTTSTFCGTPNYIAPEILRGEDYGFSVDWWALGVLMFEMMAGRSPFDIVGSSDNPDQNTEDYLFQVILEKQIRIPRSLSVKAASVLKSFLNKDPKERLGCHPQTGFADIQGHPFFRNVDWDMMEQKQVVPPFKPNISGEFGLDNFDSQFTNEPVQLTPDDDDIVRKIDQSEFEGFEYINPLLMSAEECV
Test: PKCι IC50 IMAP fluorescence polarisation assay, full-length enzyme
Type: biochemical
Conditions: full length PKCi at 15 μM ATP; read-out: IC50 in IMAP assay against full length PKCi

First: COc1cccc(OC)c1-c1c(C)sc2c(NC[C@@H](N)Cc3ccccc3)nc(-c3ccncc3)nc12 [compound 454, (S)-N*1*-[7-(2,6-Dimethoxy-phenyl)-6-methyl-2-pyridin-4-yl-thieno[3,2-d]pyrimidin-4-yl]-3-phenyl-propane-1,2-diamine]
Second: N[C@H](CNc1nc(-c2ccncc2)nc2c(C#CCO)csc12)Cc1ccccc1 [compound 515, 3-[4-((S)-2-Amino-3-phenyl-propylamino)-2-pyridin-4-yl-thieno[3,2-d]pyrimidin-7-yl]-prop-2-yn-1-ol]
The pIC50 of the first is lower: 4.40 to 5.00 for the first, greater than 7.00 for the second.

`CC(C)C[C@H](N)CNc1nc(-c2ccncc2)nc2c(Br)csc12` [compound 346, (S)-N*1*-(7-Bromo-2-pyridin-4-yl-thieno[3,2-d]pyrimidin-4-yl)-4-methyl-pentane-1,2-diamine] and `CC(C)(C)[Si](C)(C)C#Cc1csc2c(NC[C@@H](N)Cc3ccccc3)nc(-c3ccncc3)nc12` [compound 399, (S)-N*1*-{7-[(tert-Butyl-dimethyl-silanyl)-ethynyl]-2-pyridin-4-yl-thieno[3,2-d]pyrimidin-4-yl}-3-phenyl-propane-1,2-diamine] fall in the same range of pIC50: 5.00 to 6.00 for the first, 5.00 to 6.00 for the second.

`Cc1ccccc1Nc1csc2c(N[C@@H]3CCNC3)nc(-c3ccncc3F)nc12` [compound 498, 2-(3-Fluoro-pyridin-4-yl)-N*4*-(R)-pyrrolidin-3-yl-N*7*-o-tolyl-thieno[3,2-d]pyrimidine-4,7-diamine] and `NC(CNc1nc(-c2ccncc2F)nc2c(-c3ccc(F)cc3)csc12)Cc1ccccc1` (stereo in doubt) [compound 430, (R)-N*1*-[7-(4-Fluoro-phenyl)-2-(3-fluoro-pyridin-4-yl)-thieno[3,2-d]pyrimidin-4-yl]-3-phenyl-propane-1,2-diamine] fall in the same range of pIC50: 5.00 to 6.00 for the first, 5.00 to 6.00 for the second.

First: N[C@H](CNc1nc(-c2ccncc2)nc2c(C#Cc3cscn3)csc12)Cc1ccccc1 [compound 548, (S)-3-Phenyl-N*1*-(2-pyridin-4-yl-7-thiazol-4-ylethynyl-thieno[3,2-d]pyrimidin-4-yl)-propane-1,2-diamine]
Second: N#Cc1ccc(Nc2cc(-c3nc(N[C@@H]4CCNC4)c4sccc4n3)ccn2)cc1 [compound 607, 4-{4-[4-((R)-Pyrrolidin-3-ylamino)-thieno[3,2-d]pyrimidin-2-yl]-pyridin-2-ylamino}-benzonitrile]
The pIC50 of the first is higher: 6.00 to 7.00 for the first, 5.00 to 6.00 for the second.

Same assay, conditions: full length PKCi at 15 μM ATP; read-out: IC50 in IMAP assay against full length PKCi (Activity)

First: CC(C)CN1CCc2c(sc3nc(-c4ccncc4)nc(NCCN)c23)C1 [compound 114, N*1*-(7-Isobutyl-2-pyridin-4-yl-5,6,7,8-tetrahydro-pyrido[4′,3′:4,5]thieno[2,3-d]pyrimidin-4-yl)-ethane-1,2-diamine]
Second: N[C@H](CNc1nc(-c2ccncc2F)nc2sc3c(c12)CCCC3)Cc1ccccc1 [compound 101, (S)-N*1*-[2-(3-Fluoro-pyridin-4-yl)-5,6,7,8-tetrahydro-benzo[4,5]thieno[2,3-d]pyrimidin-4-yl]-3-phenyl-propane-1,2-diamine]
The pIC50 of the first is lower: 4.40 to 5.00 for the first, 5.00 to 6.00 for the second.

Target: T2, kinase-domain human PKCι (Homo sapiens, UniProt P41743)
T2 construct: Recombinant, kinase-domain human PKCι is expressed and purified in-house; made in house
T2 sequence (P41743 254-522 limits assumed): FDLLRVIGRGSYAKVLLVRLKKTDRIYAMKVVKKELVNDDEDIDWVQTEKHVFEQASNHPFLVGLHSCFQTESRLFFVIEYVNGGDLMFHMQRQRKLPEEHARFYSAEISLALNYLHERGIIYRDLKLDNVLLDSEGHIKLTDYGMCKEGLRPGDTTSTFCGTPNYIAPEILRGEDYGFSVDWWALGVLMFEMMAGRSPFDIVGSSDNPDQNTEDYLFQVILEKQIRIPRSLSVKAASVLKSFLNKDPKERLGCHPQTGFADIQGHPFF
Test: PKCι IC50 IMAP fluorescence polarisation assay, kinase-domain enzyme
Type: biochemical
Conditions: kinase domain PKCi at 2 μM ATP; read-out: IC50 in IMAP assay against kinase domain PKCi
Protocol: Assays are based on the ability of PKCι to phosphorylate a commercially available peptide substrate in vitro. […] Recombinant, full-length human PKCι expressed in Sf21 insect cells is also commercially available. Recombinant, kinase-domain human PKCι is expressed and purified in-house.
The procedure below explains how dose response curves for inhibitors of PKCι are obtained.
Compounds to be tested are dissolved in 100% DMSO. […] 1 μl is plated into 384 well black low-binding flat bottomed assay plates which are used immediately. Dilutions and additions of compound to assay plates are carried out using Matrix WellMate® and Matrix PlateMate® Plus liquid handling systems.
The final concentration of peptide substrate in the assay is 100 nM. […] Relevant controls are included, namely no compound and no enzyme. […] The reaction is allowed to incubate for 60 minutes at room temperature, before the reaction is stopped and developed by the addition of 20 μl IMAP™ development reagent (Molecular Devices). IMAP development reagent consists of 0.25% (v/v) IMAP progressive binding reagent, 17% (v/v) IMAP progressive binding buffer A and 3% (v/v) IMAP progressive binding buffer B. The plates are then incubated for 2 hours at room temperature before being read using an appropriate plate reader, for example a Molecular Devices HT Analyst or a BMG Pherastar.

First: c1cnc2sc3c(N4CCCNCC4)nc(-c4ccncc4)nc3c2c1 [compound 377, 4-[1,4]Diazepan-1-yl-2-pyridin-4-yl-pyrido[3′,2′:4,5]thieno[3,2-d]pyrimidine]
Second: Cc1csc2c(N3CCNCC3)nc(-c3ccncc3)nc12 [compound 363, 7-Methyl-4-piperazin-1-yl-2-pyridin-4-yl-thieno[3,2-d]pyrimidine]
The pIC50 of the first is lower: 5.00 to 6.00 for the first, 6.00 to 7.00 for the second. The second is the more potent here.

Compared with `Cc1csc2c(OC[C@@H]3CCCN3)nc(-c3ccncc3)nc12` [compound 480, 7-Methyl-2-pyridin-4-yl-4-((S)-1-pyrrolidin-2-ylmethoxy)-thieno[3,2-d]pyrimidine], `Cc1csc2c(N[C@H]3CCNC3)nc(-c3ccncc3)nc12` [compound 364, (7-Methyl-2-pyridin-4-yl-thieno[3,2-d]pyrimidin-4-yl)-(S)-pyrrolidin-3-yl-amine] is higher in pIC50: 4.40 to 5.00 for the first, 5.00 to 6.00 for the second.

Same assay, conditions: kinase domain PKCi at 2 μM ATP; read-out: IC50 in IMAP assay against kinase domain PKCi (Activity)

Compared with `CNCCNc1nc(-c2ccncc2)nc2sc3c(c12)CCCC3` [compound 13, N-Methyl-N′-(2-pyridin-4-yl-5,6,7,8-tetrahydro-benzo[4,5]thieno[2,3-d]pyrimidin-4-yl)-ethane-1,2-diamine], `c1cc(-c2nc(N[C@H]3CCNC3)c3c4c(sc3n2)CCCC4)ccn1` [compound 20, (2-Pyridin-4-yl-5,6,7,8-tetrahydro-benzo[4,5]thieno[2,3-d]pyrimidin-4-yl)-(S)-pyrrolidin-3-yl-amine] is lower in pIC50: 6.00 to 7.00 for the first, 5.00 to 6.00 for the second.

`CC(C)c1cc2c(NCCN)nc(-c3ccncc3)nc2s1` [compound 40, N*1*-(6-Isopropyl-2-pyridin-4-yl-thieno[2,3-d]pyrimidin-4-yl)-ethane-1,2-diamine] and `CCc1cc2c(NCCN)nc(-c3ccncc3)nc2s1` [compound 33, N*1*-(6-Ethyl-2-pyridin-4-yl-thieno[2,3-d]pyrimidin-4-yl)-ethane-1,2-diamine] fall in the same range of pIC50: 5.00 to 6.00 for the first, 5.00 to 6.00 for the second.

`Cc1sc2nc(-c3ccncc3)nc(NCCN)c2c1C` [compound 36, N*1*-(5,6-Dimethyl-2-pyridin-4-yl-thieno[2,3-d]pyrimidin-4-yl)-ethane-1,2-diamine] and `Cc1c(C(N)=O)sc2nc(-c3ccncc3)nc(NC[C@@H](N)Cc3ccccc3)c12` [compound 74, 4-((S)-2-Amino-3-phenyl-propylamino)-5-methyl-2-pyridin-4-yl-thieno[2,3-d]pyrimidine-6-carboxylic acid amide] fall in the same range of pIC50: 6.00 to 7.00 for the first, 6.00 to 7.00 for the second.

First: CC1CCc2c(sc3nc(-c4ccncc4)nc(NC[C@@H](N)Cc4ccccc4)c23)C1 (stereo partly drawn) [compound 69, (S)-N*1*-(7-Methyl-2-pyridin-4-yl-5,6,7,8-tetrahydro-benzo[4,5]thieno[2,3-d]pyrimidin-4-yl)-3-phenyl-propane-1,2-diamine]
Second: N[C@@H](COc1nc(-c2ccncc2)nc2sc3c(c12)CCCC3)Cc1ccccc1 [compound 142, (R)-2-Phenyl-1-(2-pyridin-4-yl-5,6,7,8-tetrahydro-benzo[4,5]thieno[2,3-d]pyrimidin-4-yloxymethyl)-ethylamine]
The pIC50 of the first is higher: 6.00 to 7.00 for the first, 4.40 to 5.00 for the second. The first is the more potent here.

First: Cc1n[nH]c(C)c1-c1nc(N[C@@H]2CCNC2)c2c3c(sc2n1)CCCC3 [compound 194, [2-(3,5-Dimethyl-1H-pyrazol-4-yl)-5,6,7,8-tetrahydro-benzo[4,5]thieno[2,3-d]pyrimidin-4-yl]-(R)-pyrrolidin-3-yl-amine]
Second: c1cc(-c2nc(O[C@H]3CCNC3)c3c4c(sc3n2)CCCC4)ccn1 [compound 140, 2-Pyridin-4-yl-4-((S)-pyrrolidin-3-yloxy)-5,6,7,8-tetrahydro-benzo[4,5]thieno[2,3-d]pyrimidine]
The pIC50 of the first is higher: 6.00 to 7.00 for the first, 5.00 to 6.00 for the second. The first is the more potent here.

`Clc1ccccc1CN1CCN(c2nc(-c3ccncc3)nc3sc4c(c23)CCCC4)CC1` [compound 123, 4-[4-(2-Chloro-benzyl)-piperazin-1-yl]-2-pyridin-4-yl-5,6,7,8-tetrahydro-benzo[4,5]thieno[2,3-d]pyrimidine] and `c1ccc(CN2CCN(c3nc(-c4ccncc4)nc4sc5c(c34)CCCC5)CC2)nc1` [compound 120, 2-Pyridin-4-yl-4-(4-pyridin-2-ylmethyl-piperazin-1-yl)-5,6,7,8-tetrahydro-benzo[4,5]thieno[2,3-d]pyrimidine] fall in the same range of pIC50: 4.40 to 5.00 for the first, 4.40 to 5.00 for the second.

First: N[C@H](COc1nc(-c2ccncc2)nc2sc3c(c12)CCCC3)Cc1csc2ccccc12 [compound 177, (S)-1-Benzo[b]thiophen-3-ylmethyl-2-(2-pyridin-4-yl-5,6,7,8-tetrahydro-benzo[4,5]thieno[2,3-d]pyrimidin-4-yloxy)-ethylamine]
Second: c1ccc(-c2cc3nc(-c4ccncc4)nc(N4CCNCC4)c3s2)cc1 [compound 301, 6-phenyl-4-piperazin-1-yl-2-pyridin-4-yl-thieno[3,2-d]pyrimidine]
The pIC50 of the first is lower: 4.40 to 5.00 for the first, 5.00 to 6.00 for the second. The second is the more potent here.

Source: patent US10183950B2, “Thienopyrimidine inhibitors of atypical protein kinase C” (Cancer Research Technology Limited, priority 2011, dated 2019)
